Experimental data published in patent US12336977B2, “Nitenin analogue compounds and their use in the treatment of chronic and acute pain” (SEA4US-BIOTECNOLOGIA E RECURSOS MARINHOS, LDA., priority 2019, dated 2025).
“Also recorded” adds a separate entry of the source.

Legend:
hKv1.6 = target: T1, hKv1.6 (Homo sapiens, UniProt P17658); assay: voltage-clamp of K+ currents in CHO-K1 cells expressing hKv1.6; type: cell-based
T1 construct: expressed in transfected cells; host or cells: CHO-K1
From the text: As measure of Ifast, peak current was used, whereas, as a measure of Islow, the current value was obtained at the end of the command pulse (see FIG. 1). Values are expressed as mean±S.E.M. For Islow, a dual phase relationship can be observed. […] Kv1.3 channel is the most sensitive channel (around 6-fold more sensitive in comparison to the “next most sensitive one”, the Kv1.2) Kv1.2, Kv1.1 and Kv1.6 show similar, intermediate sensitivities to nitenin. In opposition, Kv1.4 is the less sensitive (˜31 times less sensitive).
Additionally, drug sensitivity to different voltage-activated channels was assessed by studying the drug effect on currents recorded from chinese hamster ovary (CHO) cells stably transfected with different human Kv channel subunits (Kv1.1, Kv1.2, Kv1.3, Kv1.4 and Kv1.6).
The higher sensitivity of nitenin to Islow (rather than Ifast) and the nature of the nitenin sensitive current (see nitenin sensitive current in FIG. 1.b) urged to understand which K^+ channel(s) do underline Islow. By considering which Kv channel subunits are known to be expressed in DRG, and the biophysical nature of the nitenin-sensitive current, nitenin was tested on whole-cell currents recorded from CHO cells expressing hKv1.1, hKv1.2, hKv1.3, hKv1.4 and hKv1.6. […] Current inhibition was measured at the end of the 1000 ms pulse.

[1] = test system: K+ currents of small diameter dorsal-root ganglion neuron; assay: voltage dependence of steady state of inactivation of K+ currents in sdDRGn; type: cell-based, rat
From the text: One can observe a shift to hyperpolarized values during the nitenin treatment. The relationships were better fit with the sum of two Boltzmann functions, showing that in both conditions there are two components: one more hyperpolarized component (component 1) and one other more depolarized component (component 2).
One can observe a shift to hyperpolarized values during the treatment with the compound of formula VI. The relationships were better fit with the sum of two Boltzmann functions, showing that in both conditions there are two components: one more hyperpolarized component (component 1) and one other more depolarized component (component 2).
One can observe a shift to hyperpolarized values during the treatment with the compound of formula VII. The relationships were better fit with the sum of two Boltzmann functions, showing that in both conditions there are two components: one more hyperpolarized component (component 1) and one other more depolarized component (component 2).
One can observe a shift to hyperpolarized values during the treatment with the compound of formula VIII. The relationships were better fit with the sum of two Boltzmann functions, showing that in both conditions there are two components: one more hyperpolarized component (component 1) and one other more depolarized component (component 2).
For the electrophysiological recordings of the ex vivo material, voltage-clamp recordings were performed on neurons isolated from rat DRGs (and TGs). Recordings were performed from the soma that often contained the proximal fraction of axon, 1 hour after the end of the cell isolation process (includes enzymatic and mechanical treatment).

anesthetized Wistar rats = assay: in vivo ECG recordings of anesthetized Wistar rats; set-up: species or system rat; settings: intravenous 60 μg/Kg
[2] = test system: COP rats (CFA injection in the whisker pad of Wistar rats); assay: chronic orofacial pain (COP) rat model, von Frey filaments; type: in vivo; settings: I.V. 1 μg/mL of blood
From the text: Values refer to the mechanical sensitivity to face stimulation (whiskers region) using calibrated von Frey Filaments, and consequently reflecting hyperalgesia when hypersensitive (black filled markers—ipsilateral, injured face-side; Open markers—contralateral, uninjured face-side). Dotted line refers to the average value of the ipsilateral face prior to the CFA injection. a) Induction of the model showing that 3 days after operation, the mechanical sensitivity of the ipsilateral face-sides increase markedly, whereas the one associated with the contralateral leg maintains relatively unchanged, similar to baseline values. […]
(§1) For efficacy studies, nociception was assessed in all animals from all pain models by regular behavioural monitoring, by quantifying the sensitivity to mechanical stimuli with Von Frey filaments, and consequently reflecting hyperalgesia when hypersensitive. […] Intraperitoneal administration was tested in CFA rats (23 days after CFA injection), with 10 times the nitenin quantity administered by I.V. injections. […] Oral administration of nitenin through stomach gavages (endogastric), with 100 times the quantity administered by I.V. injections, was tested in CCI rats (31 days after surgery). […]

STZ rats = assay: diabetic neuropathic pain rat model STZ, von Frey filaments; type: in vivo; settings: I.V. 1 μg/mL of blood; 60 days after STZ
Experimental: […]
as §1

[3] = test system: CFA rats (knee administrations of Complete Freund's Adjuvant on Wistar rats); assay: inflammatory pain rat model CFA, von Frey filaments; type: in vivo
Experimental: […]
as §1

T1 sequence (P17658 whole entry): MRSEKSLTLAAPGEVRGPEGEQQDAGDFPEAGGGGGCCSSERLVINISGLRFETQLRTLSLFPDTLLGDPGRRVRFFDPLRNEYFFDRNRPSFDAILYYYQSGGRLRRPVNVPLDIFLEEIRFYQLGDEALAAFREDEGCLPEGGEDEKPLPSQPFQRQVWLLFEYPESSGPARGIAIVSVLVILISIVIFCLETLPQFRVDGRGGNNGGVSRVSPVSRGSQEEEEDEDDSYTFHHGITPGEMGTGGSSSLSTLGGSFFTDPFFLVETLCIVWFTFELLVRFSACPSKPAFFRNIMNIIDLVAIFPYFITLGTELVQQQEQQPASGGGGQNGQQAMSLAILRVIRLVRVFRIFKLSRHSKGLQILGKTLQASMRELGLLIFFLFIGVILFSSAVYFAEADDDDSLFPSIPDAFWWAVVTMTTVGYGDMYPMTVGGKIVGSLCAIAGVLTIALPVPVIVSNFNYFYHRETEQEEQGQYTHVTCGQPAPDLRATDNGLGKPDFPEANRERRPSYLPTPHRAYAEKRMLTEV

## C/C(=C\C1C/C(=C/CCc2ccoc2)C(=O)O1)CCCc1ccoc1 (stereo not shown) [nitenin]
hKv1.6
  lower sensitivity of hKv1.6 relative to Kv1.3: ~6 ×
[1]
  effect on I-V curves of the voltage dependence of inactivation: shifts to more hyperpolarised potentials
[1]; nitenin 0.1 μg/ml, 0.29 μM, neuron from injured side of CCI rat 28 days after surgery, control −26.3
  Vh2 (voltage of half maximum current, component 2) of steady state inactivation: −47.0 mV
[1]; nitenin 0.1 μg/ml, 0.29 μM, neuron from injured side of CCI rat 28 days after surgery, control −73.3
  Vh1 (voltage of half maximum current, component 1) of steady state inactivation: −95.3 mV
Anesthetized Wistar rats
  arrhythmia or pro-arrhythmic phenomena (ECG): neither induced arrhythmia or any pro-arrhythmic phenomena
  sinus rhythm and heart rate (ECG): did not change
[2]
  mechanical sensitivity at the whisker pad region (von Frey): reaching values not different to those obtained during baseline; also recorded: marked reduction of mechanical sensitivity
STZ rats
  mechanical sensitivity in the hypersensitive paws: decrease of mechanical sensitivity
[3]; I.V. 1 μg/mL of blood, 3, 18 and 23 days after CFA
  sensitivity to mechanical stimuli (von Frey): noticeable decrease of sensitivity to mechanical stimuli
[3]; intraperitoneal, 10 times the I.V. quantity, 23 days after CFA injection
  mitigation effect of pain (score values): clear mitigation effect of pain with score values reaching control levels
